Data from patent US5023240A, “Derivatives of tylosin and 10,11,12,13-tetrahydro tylosin and their use in pharmaceuticals” (Sour Pliva, priority 1987, dated 1991).
≈ marks a conversion by molar mass, not a printed value.

Experiments:
Assay type in all cases: cell-based
[1] = test system: Strep. pneumoniae; assay: antimicrobial activity, MIC by agar dilution method, Strep. pneumoniae; design: key to Minimal Inhibitory Concentration: R: resistant; details: 3 test strains, MIC refers to over 90% of tested strains; for MIC90: Streptococcus pneumoniae, read-out: Minimal Inhibitory Concentration
Experimental: (§1) The antimicrobial activity of some compounds of the present invention was tested on the laboratory strain Sarcina lutea and on 50 various strains isolated from fresh patients' samples. The minimal inhibitory concentration (MIC) was determined by the agar dilution method as described by M. D. Finegold and J. W. Martin, Diagnostic Microbiology, Mosby Comp., St. Louis 1982, p. 536-540.

[2] = test system: Strep. faecalis; assay: antimicrobial activity, MIC by agar dilution method, Strep. faecalis; design: key to Minimal Inhibitory Concentration: R: resistant; details: 17 test strains, MIC refers to over 90% of tested strains; for MIC90: Enterococcus faecalis, read-out: Minimal Inhibitory Concentration
Experimental: as §1

[3] = test system: Strep. agalact.; assay: antimicrobial activity, MIC by agar dilution method, Strep. agalact.; design: key to Minimal Inhibitory Concentration: R: resistant; details: 2 test strains, MIC refers to over 90% of tested strains; for MIC90: read-out: Minimal Inhibitory Concentration
Experimental: as §1

[4] = test system: Staph. aureus; assay: antimicrobial activity, MIC by agar dilution method, Staph. aureus; design: key to Minimal Inhibitory Concentration: R: resistant; details: 13 test strains, MIC refers to over 90% of tested strains; for MIC90: Staphylococcus aureus, read-out: Minimal Inhibitory Concentration
Experimental: as §1

[5] = test system: Staph. saproph.; assay: antimicrobial activity, MIC by agar dilution method, Staph. saproph.; design: key to Minimal Inhibitory Concentration: R: resistant; details: 6 test strains, MIC refers to over 90% of tested strains; for MIC90: read-out: Minimal Inhibitory Concentration
Experimental: as §1

[6] = test system: Sarcina lutea; assay: antimicrobial activity, MIC by agar dilution method, Sarcina lutea; details: Micrococcus luteus, 4 test strains, MIC refers to over 90% of tested strains, read-out: Minimal Inhibitory Concentration
Experimental: as §1

MIC90 [1]	MIC90 [2]	MIC90 [3]	MIC90 [4]	MIC90 [5]	MIC90 [6]	SMILES	Minimal Inhibitory Concentration [1]	Minimal Inhibitory Concentration [2]	Minimal Inhibitory Concentration [3]	Minimal Inhibitory Concentration [5]	Minimal Inhibitory Concentration [4]
0.5 µg/mL (≈ 0.543 µM)	4 to 8 µg/mL (≈ 4.35 to 8.69 µM)	1 to 2 µg/mL (≈ 1.09 to 2.17 µM)	2 to 4 µg/mL (≈ 2.17 to 4.35 µM)	1 to 2 µg/mL (≈ 1.09 to 2.17 µM)	0.5 µg/mL (≈ 0.543 µM)	CCC1OC(=O)CC(O)C(C)C(OC2OC(C)C(OC3CC(C)(O)C(O)C(C)O3)C(N(C)C)C2O)C(CC=O)CC(C)C(=O)CCC(C)CC1COC1OC(C)C(O)C(OC)C1OC (centres unmarked) [II, 10,11,12,13-tetrahydro tylosin]					
			32 µg/mL (≈ 34.7 µM)		1 µg/mL (≈ 1.08 µM)	CCC1OC(=O)CC(O)C(C)C(OC2OC(C)C(OC3CC(C)(O)C(O)C(C)O3)C(N(C)C)C2O)C(CCO)CC(C)C(=O)CCC(C)CC1COC1OC(C)C(O)C(OC)C1OC (centres unmarked) [III, 10,11,12,13-tetrahydro relomycin]	R	R	R	R	
0.5 µg/mL (≈ 0.542 µM)	8 to 32 µg/mL (≈ 8.68 to 34.7 µM)	2 to 8 µg/mL (≈ 2.17 to 8.68 µM)	4 µg/mL (≈ 4.34 µM)	2 to 4 µg/mL (≈ 2.17 to 4.34 µM)	0.5 µg/mL (≈ 0.542 µM)	CCC1OC(=O)CC(O)C(C)C(OC2OC(C)C(OC3CC(C)(O)C(O)C(C)O3)C(N(C)C)C2O)C(CC=O)CC(C)C(O)CCC(C)CC1COC1OC(C)C(O)C(OC)C1OC (centres unmarked) [VI, 9-deoxo-9-hydroxy-10,11,12,13-tetrahydro tylosin]					
0.5 µg/mL (≈ 0.537 µM)	1 to 4 µg/mL (≈ 1.07 to 4.3 µM)	0.5 µg/mL (≈ 0.537 µM)	1 to 4 µg/mL (≈ 1.07 to 4.3 µM)	0.5 to 2 µg/mL (≈ 0.537 to 2.15 µM)	0.5 µg/mL (≈ 0.537 µM)	CCC1OC(=O)CC(O)C(C)C(OC2OC(C)C(OC3CC(C)(O)C(O)C(C)O3)C(N(C)C)C2O)C(CC=NO)CC(C)C(=O)C=CC(C)=CC1COC1OC(C)C(O)C(OC)C1OC (centres unmarked) [XII, Tylosin aldoxime]					
1 µg/mL (≈ 1.07 µM)			8 to 16 µg/mL (≈ 8.55 to 17.1 µM)	8 µg/mL (≈ 8.55 µM)	0.5 µg/mL (≈ 0.535 µM)	CCC1OC(=O)CC(O)C(C)C(OC2OC(C)C(OC3CC(C)(O)C(O)C(C)O3)C(N(C)C)C2O)C(CC=NO)CC(C)C(=O)CCC(C)CC1COC1OC(C)C(O)C(OC)C1OC (centres unmarked) [XIX, 10,11,12,13-tetrahydro tylosin aldoxime]					
0.5 µg/mL (≈ 0.536 µM)		64 µg/mL (≈ 68.6 µM)	64 µg/mL (≈ 68.6 µM)	4 to 16 µg/mL (≈ 4.29 to 17.1 µM)	0.5 µg/mL (≈ 0.536 µM)	CCC1OC(=O)CC(O)C(C)C(OC2OC(C)C(OC3CC(C)(O)C(O)C(C)O3)C(N(C)C)C2O)C(CCO)CC(C)C(=NO)C=CC(C)=CC1COC1OC(C)C(O)C(OC)C1OC (centres unmarked) [XVIII, relomycin oxime]		R			
2 to 4 µg/mL (≈ 2.1 to 4.21 µM)			16 to 32 µg/mL (≈ 16.8 to 33.7 µM)	16 µg/mL (≈ 16.8 µM)	1 µg/mL (≈ 1.05 µM)	CCC1OC(=O)CC(O)C(C)C(OC2OC(C)C(OC3CC(C)(O)C(O)C(C)O3)C(N(C)C)C2O)C(CC=NO)CC(C)C(=NO)CCC(C)CC1COC1OC(C)C(O)C(OC)C1OC (centres unmarked) [XX, 10,11,12,13tetrahydro tylosin dioxime]					
64 µg/mL (≈ 68.3 µM)					0.5 µg/mL (≈ 0.534 µM)	CCC1OC(=O)CC(O)C(C)C(OC2OC(C)C(OC3CC(C)(O)C(O)C(C)O3)C(N(C)C)C2O)C(CCO)CC(C)C(=NO)CCC(C)CC1COC1OC(C)C(O)C(OC)C1OC (centres unmarked) [XXIII, 10,11,12,13-tetrahydro relomycin oxime]		R	R	R	R

SMILES	MIC90 [1]	MIC90 [2]	MIC90 [3]	MIC90 [4]	MIC90 [5]	MIC90 [6]	Minimal Inhibitory Concentration [1]	Minimal Inhibitory Concentration [2]	Minimal Inhibitory Concentration [3]	Minimal Inhibitory Concentration [5]	Minimal Inhibitory Concentration [4]
CCC1OC(=O)CC(O)C(C)C(OC2OC(C)C(OC3CC(C)(O)C(O)C(C)O3)C(N(C)C)C2O)C(CCO)CC(C)C(=O)C=CC(C)=CC1COC1OC(C)C(O)C(OC)C1OC (centres unmarked) [Ia, 20-deoxo-20-hydroxy tylosin, reference compound]	0.5 to 1 µg/mL (≈ 0.545 to 1.09 µM)	64 µg/mL (≈ 69.7 µM)	16 µg/mL (≈ 17.4 µM)	4 to 16 µg/mL (≈ 4.36 to 17.4 µM)	1 to 16 µg/mL (≈ 1.09 to 17.4 µM)	1 µg/mL (≈ 1.09 µM)					
